Common to all, as to assay type: cell-based
Assay [1] relates to LNCaP. As to the kind of experiment: Cell growth inhibition assay, prostate cancer cell line LNCaP (medium with 10 ng/mL IL-6). The conditions noted are these: Homo sapiens, medium supplemented with 10 ng/mL of IL-6, 10,000 cells/well. The method, then: (§1) The inhibitory effects of the compounds of the present invention against the growth of cancer cells were evaluated as shown below. The cancer cell lines including stomach cancer cell line (AGS), breast cancer cell lines (MDA-MB-231, MDA-MB-468, and BT-549), prostate cancer cell lines (LNCaP and DU-145), colon cancer cell line (HCT116), ovarian cancer cell line (SW626), liver cancer cell line (Hep3B), kidney cancer cell line (ACHN), lung cancer cell line (NCI-H23) and blood cancer cell lines (HEL92.1.7 and U266) were cultured under the protocol provided by each supplier. A medium supplemented with 10 ng/mL of IL-6 was used for LNCaP, a prostate cancer cell line, when treated with a drug. Each type of cells to be used in experiments were sub-cultured in a 96-well plate by counting the exact number of cells using Tali™ Image-based Cytometer (Life Technologies). In a 96-well plate, AGS, HCT116, and DU-145 were employed with 3,000 cells/well; NCI-H23, SW626, Hep3B, ACHN, BT-549, MDA-MB-231, HEL92.1.7, and U266 were employed with 5,000 cells/well; and LNCaP and MDA-MB-468 were employed with 10,000 cells/well. The cells were treated with the compounds listed in Examples which were diluted in various concentrations. Upon completion of the compounds treatment, AGS, HCT116, SW626, DU145, NCI-H23, Hep3B, ACHN, BT-549, LNCaP, HEL92.1.7, and U266 cells were cultured at 37° C. under 5% CO2 for from 72 to 96 hours, and MDA-MB-231 and MDA-MB-468 cells were cultured at 37° C. in air for from 72 to 96 hours. Subsequently, the cells were observed under microscope and drug precipitation and particular findings were investigated and recorded. And then, the 96-well plate was placed at room temperature for 30 minutes, added with 20 μL/well of CellTiter-Glo solution (Cat No. G7573, Promega) and shaken for 10 minutes, followed by being subjected to the measurement using PHERAstar™ microplate reader (BMG LABTECH) according to the supplier's general luminometer protocol. Wells where only culture liquid added without cell plating were used as a negative control, whereas wells where culture liquid containing 0.1% DMSO instead of the compounds listed in Examples were used as a positive control.

The subject of assay [2] is DU-145. Nature of the assay: Cell growth inhibition assay, prostate cancer cell line DU-145. The following applies: Homo sapiens, DU-145 prostate cancer cell line. The method, then: as §1
Assay [3] addresses T1, STAT3 (Homo sapiens, UniProt P40763).
T1 construct: plasmid pSTAT3-TA-luc), which contains a stably operating STAT3 promoter; endogenous in cells
Nature of the assay: STAT3 reporter gene assay (luciferase), LNCaP stable cell line (pSTAT3-TA-luc), IL-6 stimulation. The method, then:
1-1) Experiment on the Inhibition of STAT3 Activity
A human prostate cancer cell line (LNCaP stable cell line; plasmid pSTAT3-TA-luc), which contains a stably operating STAT3 promoter, was cultured in RPMI1640 medium (Cat No. 11875, Life Technologies) containing 10% fetal bovine serum (FBS) (Cat No. SH30396, Thermo Scientific) and 150 μg/mL G-418 solution (Cat No. 04 727 894 001, Roche). The reporter gene assay using LNCaP stable cell line was performed in RPMI1640 medium containing 3% DCC-FBS without G-418 solution. LNCaP stable cells were plated in two (2) white 96-well plates with 30,000 cells/50 μL in each well. The cells were cultured at 37° C., under 5% CO2 for 24 hours, and then treated with the compounds listed in Examples which were diluted in various concentrations. Subsequently, IL-6 was added to each well with a final concentration of 10 ng/mL. Upon completion of the treatment with the compounds and IL-6, the cells were cultured at 37° C., under 5% CO2 for from 24 to 48 hours. The plates were observed under microscope and drug precipitation and particular findings were investigated and recorded.
The luciferase assay and the cell viability assay were performed respectively with one of the two plates. For the luciferase assay, the liquid media in the 96-well plate was removed, and then, 20 μL of passive cell lysis buffer was added to each well. After shaking the plate for 30 minutes, luciferase activities of each well were measured in a PHERAstar™ microplate reader (BMG LABTECH) using a luciferase assay system (Cat No. E1501, Promega). For the cell viability assay, the 96-well plate was placed at room temperature for 30 minutes, added with 20 μL/well of CellTiter-Glo solution (Cat No. G7573, Promega), and shaken for 10 minutes in order to measure cytotoxicity caused by the compounds listed in Examples with a PHERAstar™ microplate reader (BMG LABTECH). Wells without 0.1% DMSO and stimulation were used as a negative control and wells with 0.1% DMSO and stimulation were used as a positive control.
In general terms: Reporter assays use an easily measured gene product as a stand-in for the process of interest.

The term IC50 denotes the concentration at which inhibition is half-maximal. A low value points to greater potency in that assay.

T1 sequence (P40763 whole entry): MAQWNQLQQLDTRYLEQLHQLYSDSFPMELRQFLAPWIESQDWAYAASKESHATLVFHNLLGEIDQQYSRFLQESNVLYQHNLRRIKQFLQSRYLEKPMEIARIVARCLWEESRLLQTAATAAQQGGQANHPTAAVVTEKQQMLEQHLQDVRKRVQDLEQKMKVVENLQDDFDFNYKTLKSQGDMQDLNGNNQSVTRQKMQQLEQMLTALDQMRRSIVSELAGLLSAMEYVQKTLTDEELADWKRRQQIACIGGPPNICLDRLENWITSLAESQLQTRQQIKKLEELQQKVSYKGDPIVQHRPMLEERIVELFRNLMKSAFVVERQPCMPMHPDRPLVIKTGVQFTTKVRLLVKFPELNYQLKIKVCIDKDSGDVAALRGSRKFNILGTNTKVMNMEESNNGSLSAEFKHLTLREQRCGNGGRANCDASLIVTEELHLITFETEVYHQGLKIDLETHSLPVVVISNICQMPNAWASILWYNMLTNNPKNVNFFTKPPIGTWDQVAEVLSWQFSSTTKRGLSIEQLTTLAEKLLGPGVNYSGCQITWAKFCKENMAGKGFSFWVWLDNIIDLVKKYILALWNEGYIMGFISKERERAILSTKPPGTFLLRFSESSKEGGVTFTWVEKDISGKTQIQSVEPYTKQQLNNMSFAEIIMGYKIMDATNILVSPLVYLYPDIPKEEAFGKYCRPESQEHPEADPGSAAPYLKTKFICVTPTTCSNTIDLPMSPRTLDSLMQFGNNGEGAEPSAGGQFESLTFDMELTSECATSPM

As for `CC(C)Oc1cc(CN2CCS(=O)(=O)CC2)cc(C(C)(C)c2cc(Cl)cc(NC(=O)c3cc4cc(NS(C)(=O)=O)ccc4s3)c2)c1` [Example 132, N-(3-chloro-5-(2-(3-((1,1-dioxidothiomorpholino)methyl)-5-isopropoxyphenyl)propan-2-yl)phenyl)-5-(methylsulfonamido)benzo[b]thiophene-2-carboxamide], the values for the IC50 in assay [1], in assay [2] and in assay [3] were 0.97 µM, 0.41 µM and 0.35 µM, respectively.
Turning to `CC(C)Oc1cc(CN2CCN(C(=O)N(C)C)CC2)cc(C(C)(C)c2cc(Cl)cc(NC(=O)c3cc4cc(NS(C)(=O)=O)ccc4s3)c2)c1` [Example 133, 4-(3-(2-(3-chloro-5-(5-(methylsulfonamido)benzo[b]thiophene-2-carboxamido)phenyl)propan-2-yl)-5-isopropoxybenzyl)-N,N-dimethylpiperazine-1-carboxamide], the half-inhibitory concentration (IC50) in assay [1] came to 0.7 µM; in assay [2], 0.22 µM; in assay [3], 0.15 µM.
As for `CC(C)Oc1cc(CN2CCC3(CC2)COC3)cc(C(C)(C)c2cc(Cl)cc(NC(=O)c3cc4cc(NS(C)(=O)=O)ccc4s3)c2)c1` [Example 134, N-(3-(2-(3-((2-oxa-7-azaspiro[3,5]nonan-7-yl)methyl)-5-isopropoxyphenyl)propan-2-yl)-5-chlorophenyl)-5-(methylsulfonamido)benzo[b]thiophene-2-carboxamide], the 50% inhibitory concentration (IC50) in assay [1] is 0.84 µM; in assay [2] it was 0.16 µM; in assay [3], 0.27 µM.
For `CC(C)Oc1cc(CN2CCN(c3nnc(C(C)C)o3)CC2)cc(C(C)(C)c2cc(Cl)cc(NC(=O)c3cc4cc(NS(C)(=O)=O)ccc4s3)c2)c1` [Example 135, N-(3-chloro-5-(2-(3-isopropoxy-5-((4-(5-isopropyl-1,3,4-oxadiazol-2-yl)piperazin-1-yl)methyl)phenyl)propan-2-yl)phenyl)-5-(methylsulfonamido)benzo[b]thiophene-2-carboxamide] the same measures were 0.85 µM, 0.3 µM and 0.14 µM.
For `CC(C)Oc1cc(CN2CCN(c3noc(C(C)C)n3)CC2)cc(C(C)(C)c2cc(F)cc(NC(=O)c3cc4cc(NS(C)(=O)=O)ccc4s3)c2)c1` [Example 136, N-(3-fluoro-5-(2-(3-isopropoxy-5-((4-(5-isopropyl-1,2,4-oxadiazol-3-yl)piperazin-1-yl)methyl)phenyl)propan-2-yl)phenyl)-5-(methylsulfonamido)benzo[b]thiophene-2-carboxamide] the same measures were 0.38 µM, 0.051 µM and 0.059 µM.
On the same counts, the results for `CC(C)Oc1cc(CN2CCOCC2)cc(C(C)(C)c2cc(F)cc(NC(=O)c3cc4cc(NS(C)(=O)=O)ccc4s3)c2)c1` [Example 137, N-(3-fluoro-5-(2-(3-isopropoxy-5-(morpholinomethyl)phenyl)propan-2-yl)phenyl)-5-(methylsulfonamido)benzo[b]thiophene-2-carboxamide] are 0.4 µM, 0.1 µM and 0.22 µM.
In the case of `Cn1nccc1-c1ccc(C(C)(C)c2cc(Cl)cc(NC(=O)c3cc4cc(NS(C)(=O)=O)ccc4s3)c2)cc1` [Example 159, N-(3-chloro-5-(2-(4-(1-methyl-1H-pyrazol-5-yl)phenyl)propan-2-yl)phenyl)-5-(methylsulfonamido)benzo[b]thiophene-2-carboxamide], the half-inhibitory concentration (IC50) in assay [1] came to 0.16 µM; in assay [2], 0.14 µM; in assay [3] it was 0.31 µM.
Turning to `C[S+]([O-])c1ccc(C(C)(C)c2cc(Cl)cc(NC(=O)c3cc4cc(NS(C)(=O)=O)ccc4s3)c2)cc1` (stereo not drawn) [Example 160, N-(3-chloro-5-(2-(4-(methylsulfinyl)phenyl)propan-2-yl)phenyl)-5-(methylsulfonamido)benzo[b]thiophene-2-carboxamide], the figures for the IC50 in assay [1], in assay [2] and in assay [3] were more than 1.1 µM, more than 1.1 µM and 3.3 µM, respectively.
`CC(C)(c1ccc(S(C)(=O)=O)cc1)c1cc(Cl)cc(NC(=O)c2cc3cc(NS(C)(=O)=O)ccc3s2)c1` [Example 161, N-(3-chloro-5-(2-(4-(methylsulfonyl)phenyl)propan-2-yl)phenyl)-5-(methylsulfonamido)benzo[b]thiophene-2-carboxamide]: the concentration for half-maximal inhibition (IC50) in assay [1] was more than 1.1 µM; in assay [2] it was 0.72 µM; in assay [3] it was more than 10 µM.
For the compound `CC(C)(c1cc(Cl)cc(NC(=O)c2cc3cc(NS(C)(=O)=O)c(Cl)cc3s2)c1)N1CCCCC1` [Example 165, 6-chloro-N-(3-chloro-5-(2-(piperidin-1-yl)propan-2-yl)phenyl)-5-(methylsulfonamido)benzo[b]thiophene-2-carboxamide], the half-maximal inhibitory concentration (IC50) was found to be 0.11 µM in assay [1], 0.07 µM in assay [2] and 0.13 µM in assay [3].
On the same counts, the results for `CC(C)(c1cc(Cl)cc(NC(=O)c2cc3cc(NS(C)(=O)=O)ccc3s2)c1)c1cccs1` [Example 170, N-(3-chloro-5-(2-(thiophen-2-yl)propan-2-yl)phenyl)-5-(methylsulfonamido)benzo[b]thiophene-2-carboxamide] are 0.059 µM, 0.005 µM and 0.068 µM.
For `CC(C)(c1ccsc1)c1cc(Cl)cc(NC(=O)c2cc3cc(NS(C)(=O)=O)ccc3s2)c1` [Example 171, N-(3-chloro-5-(2-(thiophen-3-yl)propan-2-yl)phenyl)-5-(methylsulfonamido)benzo[b]thiophene-2-carboxamide], the IC50 came to 0.071 µM in assay [1], 0.038 µM in assay [2] and 0.074 µM in assay [3].
With `CC(C)(c1ccc(Cl)cc1)c1cc(Cl)cc(NC(=O)c2cc3cc(NS(C)(=O)=O)c(Cl)cc3s2)c1` [Example 172, 6-chloro-N-(3-chloro-5-(2-(4-chlorophenyl)propan-2-yl)phenyl)-5-(methylsulfonamido)benzo[b]thiophene-2-carboxamide], the values for the IC50 in assay [1], in assay [2] and in assay [3] were 0.009 µM, 0.005 µM and 0.016 µM, respectively.
Take `CC(C)(c1ccc(Cl)cc1)c1cc(Cl)cc(NC(=O)c2cc3cc(NS(C)(=O)=O)c(Br)cc3s2)c1` [Example 173, 6-bromo-N-(3-chloro-5-(2-(4-chlorophenyl)propan-2-yl)phenyl)-5-(methylsulfonamido)benzo[b]thiophene-2-carboxamide]: the IC50 worked out at 0.11 µM in assay [1], 0.009 µM in assay [2] and 0.011 µM in assay [3].
Regarding `CC(C)(c1cc(Cl)cc(NC(=O)c2cc3cc(NS(C)(=O)=O)ccc3s2)c1)c1ccc(Cl)s1` [Example 174, N-(3-chloro-5-(2-(5-chlorothiophen-2-yl)propan-2-yl)phenyl)-5-(methylsulfonamido)benzo[b]thiophene-2-carboxamide], the IC50 came to 0.091 µM in assay [1], 0.033 µM in assay [2] and 0.1 µM in assay [3].
